# Test results taken from patent US9090600B2, “Fungicidal 4-substituted-3-{phenyl[(heterocyclylmethoxy)imino]methyl}-1,2,4-oxadizol-5(4H)-one derivatives” (BAYER INTELLECTUAL PROPERTY GMBH, priority 2011, dated 2015).
# Like-named read-outs stand apart in the source and are kept apart here. Marks after values point to notes of the source that are not given here.
# Columns and labels:
# [1] = tested on: Botrytis cinerea; assay: In vivo test on Botrytis cinerea (grey mould); conditions: gherkin plants, spray, 500 ppm, grading 4/5 days after contamination
# Method: The active ingredients tested are prepared by homogenization in a mixture of acetone/Tween/DMSO, then diluted with water to obtain the desired active material
# Gherkin plants (Vert petit de Paris variety), sown on a 50/50 peat soil-pozzolana substrate in starter cups and grown at 18-20° C., are treated at the cotyledon Z11 stage by spraying with the active ingredient prepared as described above.
# Plants, used as controls, are treated with an aqueous solution not containing the active material. After 24 hours, the plants are contaminated by spraying them with an aqueous suspension of cryopreserved Botrytis cinerea spores (50.000 spores per ml) on upper surface of the leaves. The spores are suspended in a nutrient solution composed of: • 10 g/L of PDB; • 50 g/L of D-fructose; • 2 g/L of NH4NO3; • 1 g/L of KH2PO4.
# The contaminated cucumber plants are settled for 4/5 days in a climatic room at 17° C. (day/night) and at 80% relative humidity.
# Grading is carried out 4/5 days after the contamination, in comparison with the control plants.
# (§1) Under these conditions, good (at least 70%) or total protection is observed at a dose of 500 ppm with the following compounds: […]
# [2] = pH 2.7
# [3] = tested on: Phytophthora infestans; assay type: in vivo; conditions: tomato plants, spray, 500 ppm, grading 5 days after contamination
# [4] = tested on: Alternaria brassicae; assay: In vivo test on Alternaria brassicae (leaf spot of crucifers); conditions: radish plants, spray, 500 ppm, grading 6 to 7 days after contamination
# Method: (§2) The active ingredients tested are prepared by homogenization in a mixture of acetone/tween/DMSO, then diluted with water to obtain the desired active material.
# Radish plants (Pernot variety), sown on a 50/50 peat soil-pozzolana substrate in starter cups and grown at 18-20° C., are treated at the cotyledon stage by spraying with the active ingredient prepared as described above.
# Plants, used as controls, are treated with the mixture of acetone/tween/water not containing the active material.
# After 24 hours, the plants are contaminated by spraying them with an aqueous suspension of Alternaria brassicae spores (40,000 spores per cm^3). The spores are collected from a 12 to 13 days-old culture.
# The contaminated radish plants are incubated for 6-7 days at about 18° C., under a humid atmosphere.
# Grading is carried out 6 to 7 days after the contamination, in comparison with the control plants.
# Under these conditions, good protection (at least 70%) is observed at a dose of 500 ppm with the following compounds: […]
# [5] = tested on: Pyrenophora teres; assay: In vivo test on Pyrenophora teres (barley net blotch); conditions: barley plants, spray, 500 ppm, grading 12 days after contamination
# Method: The active ingredients tested are prepared by homogenization in a mixture of acetone/Tween/DMSO, then diluted with water to obtain the desired active material concentration.
# Barley plants (Plaisant variety), sown on a 50/50 peat soil-pozzolana substrate in starter cups and grown at 22° C. (12 h)/20° C. (12 h), are treated at the 1-leaf stage (10 cm tall) by spraying with the active ingredient prepared as described above.
# (§3) Plants, used as controls, are treated with an aqueous solution not containing the active material.
# After 24 hours, the plants are contaminated by spraying them with an aqueous suspension of Pyrenophora teres spores (12.000 spores per ml). The spores are collected from a 12-day-old culture.
# The contaminated barley plants are incubated for 24 hours at about 20° C. and at 100% relative humidity, and then for 12 days at 80% relative humidity.
# Grading is carried out 12 days after the contamination, in comparison with the control plants.
# Under these conditions, good (at least 70%) is observed at a dose of 500 ppm with the following compounds: […]
# [6] = tested on: Puccinia recondita; assay: In vivo test on Puccinia recondita (brown rust); conditions: wheat plants, spray, 500 ppm, grading 10 days after contamination
# Outline: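 Wheat (Scipion) at the 1-leaf stage sprayed with compound suspension (acetone/tween/DMSO diluted in water), then inoculated 24 h later with Puccinia recondita spores at 100.000 spores per ml. Plants were held 24 h at 20 °C/100% RH, then 10 days at 20 °C/70% RH; protection graded 10 days post-inoculation versus untreated controls.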
# [7] = tested on: Plasmopara viticola; assay: Plasmopara test (grapevines)/preventive; assay type: in vivo; conditions: preventive spray, 10 ppm of active ingredient, evaluated 6 days after inoculation
# Outline: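 Young grapevines sprayed preventively with compound formulated in acetone/dimethylacetamide with emulsifier, diluted in water, then inoculated with P. viticola spores after drying. Held 1 day at ~20 °C/100% RH, 4 days in greenhouse at ~21 °C/~90% RH, then misted for 1 day. Efficacy scored 6 days post-inoculation (0% = untreated control, 100% = no disease).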
# [8] = tested on: Uromyces appendiculatus; assay: In vivo test on Uromyces appendiculatus (brown rust of bean); conditions: Saxa variety plants, spray, 500 ppm, grading 10 days after contamination
# Method: as §2
# […] (Saxa variety) sown on 50/50 peat soil-pozzolana substrate in starter cups and grown at 24° C., are treated at the 2-leaf stage (9 cm tall) by spraying with the aqueous suspension described above.
# as §3
# After 24 hours, the plants are contaminated by spraying the leaves with an aqueous suspension of Uromyces appendiculatus spores (150.000 spores per ml). The spores are collected from a 10-day-old contaminated […] and are suspended in water containing 2.5 ml/l of tween 80 10%. The contaminated […] are incubated for 24 hours at 20° C. and at 100% relative humidity, and then for 10 days at 20° C. and at 70% relative humidity. Grading is carried out 10 days after the contamination, in comparison with the control plants.
# as §1
# [9] = tested on: Pyricularia grisea; assay type: in vivo; conditions: rice plants, spray, 500 ppm, grading 6 days after contamination
# [10] = tested on: Mycosphaerella graminicola; assay: In vivo test on Mycosphaerella graminicola (wheat leaf spot); conditions: wheat plants, spray, 500 ppm, grading 21 to 28 days after contamination
# Method: The active ingredients tested are prepared by homogenization in a mixture of acetone/tween/DMSO, then diluted with water to obtain the desired active material concentration.
# Wheat plants (Scipion variety), sown on a 50/50 peat soil-pozzolana substrate in starter cups and grown at 22° C. (12 h)/20° C. (12 h), are treated at the 1-leaf stage (10 cm tall) by spraying with the aqueous suspension described above. Plants, used as controls, are treated with an aqueous solution not containing the active material.
# After 24 hours, the plants are contaminated by spraying them with an aqueous suspension of cryopreserved Mycosphaerella graminicola spores (500.000 spores per ml). The contaminated wheat plants are incubated for 72 hours at 18° C. and at 100% relative humidity, and then for 21 to 28 days at 90% relative humidity.
# Grading (% of efficacy) is carried out 21 to 28 days after the contamination, in comparison with the control plants.
# as §1
# [11] = tested on: Phytophthora infestans; assay type: in vivo; conditions: tomato, preventive spray, 100 ppm of active ingredient, evaluated 7 days after inoculation
# [12] = tested on: Pythium aphanidermatum; assay: Pythium test (cucumber)/seed treatment; assay type: in vivo; conditions: 10 g/dt seed of active ingredient, emerged seedlings after 7 days
# Method: (§4) The test is performed under greenhouse conditions.
# Cucumber seeds, treated with the active compound or compound combinations, solved in N-methyl-2-pyrrolidon and diluted with water to the desired dosages, were sown in 6*6 cm pots containing 4 cm of a 1:1 mix of steamed field soil and sand.
# Perlite was incubated with mycelium fragments of Pythium aphanidermatum. 5 ml of infected perlite was scattered between the treated […] seeds. Seeds were then covered by the 1:1 mix of steamed field soil and sand. Pots were incubated in the greenhouse 7 days at 24° C. and 80% relative humidity. Assessment consisted of counting of emerged seedlings. 0% means an efficacy which corresponds to that of the control, while an efficacy of 100% means that all seedlings have emerged.
# [13] = tested on: Pythium irregulare; assay: Pythium test (corn)/seed treatment; assay type: in vivo; conditions: 10 g/dt seed of active ingredient, emerged seedlings after 7 days at 10° C. then 14 days at 20° C.
# Method: as §4
# Corn seeds, treated with the active compound or compound combinations, solved in N-methyl-2-pyrrolidon and diluted with water to the desired dosages, were sown in 6*6 cm pots containing 4 cm of a 1:1 mix of steamed field soil and sand.
# Perlite was incubated with mycelium fragments of Pythium irregulare. 5 ml of infected perlite was scattered between the treated cotton seeds. Seeds were than covered by the 1:1 mix of steamed field soil and sand. Pots were incubated in the greenhouse 7 days at 10° C. and 80% relative humidity and then 14 days at 20° C. and 80% relative humidity.
# Assessment consisted of counting of emerged seedlings. 0% means an efficacy which corresponds to that of the control, while an efficacy of 100% means that all seedlings have emerged.
SMILES,Eff. % [1],LogP [2],Eff. % [3],also measured
COc1cccc(C(=NOCc2cccc(N)n2)c2noc(=O)[nH]2)c1 (mixture of isomers) [Example 354],71%,1.29 [a],,
Cn1c(/C(=N\OCc2cccc(NC(=O)CCCCl)n2)c2ccccc2)noc1=O [Example 34],,3.27 [a],99%,Eff. % [4]: 100%
Cn1c(/C(=N\OCc2cccc(NC(=O)C3CC3)n2)c2ccccc2)noc1=O [Example 35],71%,2.92 [a],,Eff. % [5]: 100%
CCCCCOC(=O)Nc1cccc(CO/N=C(/c2cccc(OC)c2)c2noc(=O)n2C)n1 [Example 36],86%,4.46 [a],85%,Eff. % [5]: 71%; Eff. % [6]: 75%
C#CCC(C)(C)OC(=O)Nc1cccc(CO/N=C(/c2ccccc2)c2noc(=O)n2C)n1 [Example 39],,3.94 [a],100%,Eff. % [7]: 97%; Eff. % [8]: 81%; Eff. % [6]: 98%; Eff. % [4]: 83%
Cn1c(/C(=N\OCc2cccc(NC(=O)c3cccc(F)c3)n2)c2cccc(F)c2)noc1=O [Example 42],,3.79 [a],92%,Eff. % [9]: 71%
Cn1c(/C(=N\OCc2cccc(NC(=O)CCCC[n+]3ccccc3)n2)c2ccccc2)noc1=O.O=C[O-] [Example 67],80%,1.67 [a],89%,Eff. % [10]: 90%; Eff. % [6]: 98%
C=CCOC(=O)Nc1cccc(CO/N=C(/c2ccccc2)c2noc(=O)n2C)n1 [Example 109],,3.42 [a],93%,Eff. % [9]: 70%
CCCCCC(=O)Nc1cccc(CO/N=C(/c2ccccc2)c2noc(=O)n2C)n1 [Example 111],,3.89 [a],100%,Eff. % [11]: 95%; Eff. % [7]: 100%; Eff. % [8]: 72%; Eff. % [10]: 100%; Eff. % [4]: 70%
Cc1ccc(C(=O)Nc2nc(CO/N=C(/c3ccccc3)c3noc(=O)n3C)cs2)cc1 [Example 180],83%,3.76 [a],98%,Eff. % [7]: 95%
Cn1c(/C(=N\OCc2cccc(NC(=O)C3OCCc4ccccc43)n2)c2ccccc2)noc1=O (stereo not drawn) [Example 227],,4.1 [a],100%,Eff. % [9]: 96%
Cn1c(C(=NOCc2cccc(NC(=O)Cc3cc(F)ccc3F)n2)c2ccccc2)noc1=O [Example 255],,3.62 [a],98%,Eff. % [5]: 70%; Eff. % [10]: 88%
Cn1c(C(=NOCc2csc(NC(=O)c3ccc(Cl)cc3Cl)n2)c2ccccc2)noc1=O [Example 262],,3.94 [a],78%,Eff. % [4]: 83%
CCCOC(=O)Nc1nc(CON=C(c2ccccc2)c2noc(=O)n2C)cs1 [Example 265],,3.35 [a],93%,Eff. % [9]: 70%
Cn1c(/C(=N\OCc2cccc(NC(=O)COCc3ccccc3)n2)c2ccccc2)noc1=O [Example 278],78%,3.87 [a],100%,
CCCC(C)OC(=O)Nc1cccc(CO/N=C(/c2ccccc2)c2noc(=O)n2C)n1 (stereo not drawn) [Example 282],,4.36 [a],98%,Eff. % [11]: 92%; Eff. % [7]: 96%; Eff. % [12]: 100%; Eff. % [13]: 90%
Cn1c(/C(=N\OCc2cccc(NC(=O)OC(CCl)CCl)n2)c2ccccc2)noc1=O [Example 306],,3.83 [a],100%,Eff. % [9]: 90%
Cc1ccc(/C(=N/OCc2csc(N)n2)c2noc(=O)[nH]2)cc1 [Example 308],,1.84 [a],89%,Eff. % [10]: 100%; Eff. % [6]: 94%; Eff. % [4]: 90%
Cn1c(/C(=N\OCc2cccc(NC(=O)c3ccc(Cl)cc3Cl)n2)c2ccccc2)noc1=O [Example 332],71%,4.14 [a],85%,
Cn1c(/C(=N\OCc2cccc(NC(=O)c3ccc(F)cc3)n2)c2ccccc2)noc1=O [Example 364],,3.62 [a],98%,Eff. % [7]: 100%; Eff. % [4]: 92%
Cn1c(/C(=N\OCc2csc(NC(=O)c3ccc(Br)cc3)n2)c2ccccc2)noc1=O [Example 373],85%,4.01 [a],97%,
